Test results from PMC6412119 (2019).

Test system: c-MYC Pu22-G10>T10 (DNA, G4) TGAGGGTGGTTAGGGTGGGTAA
Assay: fluorescence light-up
Settings: 100 mM KCl; 10 mM potassium phosphate pH 7.0; 0.5 μM each; weak response

binding: weak
Compound: C(=NNc1nc(Nc2ccccc2)nc(Nc2ccccc2)n1)c1c2ccccc2cc2ccccc12
